System: 439559-082-T-J2-PDC spheroid viability
Experiment: Anticancer human tumor 439559-082-T-J2-PDC patient-derived colon adenocarcinoma cell line growth inhibition [POLQ]
Details: spheroids with HUVEC and MSC; for IC50: curve of first compound; for viability, T/C: stronger effect = lower value
Summary of the method: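 Patient-derived tumour cells were co-cultured with HUVEC and mesenchymal stem cells as multicellular spheroids at 37 °C. They were treated with POLQ inhibitors (novobiocin, ART-558, RP6685) alone or combined with other agents. Top concentrations were at or near clinical Cmax (otherwise 10 microM; SN-38 at 1 microM), decreasing in half-log steps.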
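Further: spheroids exposed to compounds for seven days before readout.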
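Wherever viability, T/C is given: 100% = DMSO vehicle control viability.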

CC1COCCN1c1cc(-c2ccnn2C)c2ccnc(-c3ccn[nH]3)c2n1 (configuration not stated) + Cc1cccc(N(C)C(=O)C2C(O)CCN2c2nc(C)cc(C(F)(F)F)c2C#N)c1
IC50 (second compound 0.0316 µM): 557 nM
IC50 (second compound 0.1 µM): 397 nM
IC50 (second compound 0.316 µM): 311 nM
IC50 (second compound 1 µM): 478 nM
IC50 (second compound 3.16 µM): 291 nM
IC50 (second compound 10 µM): 841 nM
viability, T/C (second compound 0.0316 µM, first compound 0.0316 µM): 91%
viability, T/C (second compound 0.0316 µM, first compound 0.1 µM): 79.8%
viability, T/C (second compound 0.0316 µM, first compound 0.316 µM): 50.9%
viability, T/C (second compound 0.0316 µM, first compound 1 µM): 49.7%
viability, T/C (second compound 0.0316 µM, first compound 3.16 µM): 53.6%
viability, T/C (second compound 0.0316 µM, first compound 10 µM): 43.6%
viability, T/C (second compound 0.1 µM, first compound 0.0316 µM): 95.5%
viability, T/C (second compound 0.1 µM, first compound 0.1 µM): 81.1%
viability, T/C (second compound 0.1 µM, first compound 0.316 µM): 51.2%
viability, T/C (second compound 0.1 µM, first compound 1 µM): 44.3%
viability, T/C (second compound 0.1 µM, first compound 3.16 µM): 49.4%
viability, T/C (second compound 0.1 µM, first compound 10 µM): 43.3%
viability, T/C (second compound 0.316 µM, first compound 0.0316 µM): 87.7%
viability, T/C (second compound 0.316 µM, first compound 0.1 µM): 80.3%
viability, T/C (second compound 0.316 µM, first compound 0.316 µM): 49.5%
viability, T/C (second compound 0.316 µM, first compound 1 µM): 47.8%
viability, T/C (second compound 0.316 µM, first compound 3.16 µM): 51.6%
viability, T/C (second compound 0.316 µM, first compound 10 µM): 40.8%
viability, T/C (second compound 1 µM, first compound 0.0316 µM): 92.9%
viability, T/C (second compound 1 µM, first compound 0.1 µM): 76.9%
viability, T/C (second compound 1 µM, first compound 0.316 µM): 52%
viability, T/C (second compound 1 µM, first compound 1 µM): 46.2%
viability, T/C (second compound 1 µM, first compound 3.16 µM): 51.4%
viability, T/C (second compound 1 µM, first compound 10 µM): 37.4%
viability, T/C (second compound 3.16 µM, first compound 0.0316 µM): 89%
viability, T/C (second compound 3.16 µM, first compound 0.1 µM): 76.8%
viability, T/C (second compound 3.16 µM, first compound 0.316 µM): 47.2%
viability, T/C (second compound 3.16 µM, first compound 1 µM): 46.7%
viability, T/C (second compound 3.16 µM, first compound 3.16 µM): 55.8%
viability, T/C (second compound 3.16 µM, first compound 10 µM): 42%
viability, T/C (second compound 10 µM, first compound 0.0316 µM): 82.3%
viability, T/C (second compound 10 µM, first compound 0.1 µM): 72.3%
viability, T/C (second compound 10 µM, first compound 0.316 µM): 50.6%
viability, T/C (second compound 10 µM, first compound 1 µM): 49.7%
viability, T/C (second compound 10 µM, first compound 3.16 µM): 49.8%
viability, T/C (second compound 10 µM, first compound 10 µM): 36.8%

From PubChem BioAssay AID1963841 (Molecular Pharmacology Branch, DTP, NCI, 2024)
